The values that follow are results of earlier work, collected in patent US9206100B2, “Route to synthetic analogues of Rocaglamide and Aglafoline using cascade transformations initiated by oxy-cope rearrangement of bis-alkynes” (The Florida State University Research Foundation, Inc., priority 2010, dated 2015).

This data set relates to various human leukemia cell lines. Conditions: through the intrinsic death pathway; human leukemia cell lines and ALL, CML and AML cells freshly isolated from patients.

Turning to `COc1ccc([C@@]23Oc4cc(OC)cc(OC)c4[C@]2(O)[C@H](O)[C@H](C(=O)N(C)C)[C@H]3c2ccccc2)cc1` [Rocaglamide], the apoptosis induction result is reported as “induces apoptosis”.
